Results on 1 compound are retold here after patent publication US20260139241A1, “METHOD FOR CONSTRUCTING SENESCENT CELLSAND METHOD FOR EVALUATING ANTI-SENESCENCE EFFICACY” (JAKA BIOTECH Co,.Ltd., priority 2022, published 2026).

The test system of assay [1] is exogenously senescent human primary fibroblasts (UVA-P4, UVA-P7, UVA-P9 passage cells). In words: Anti-aging efficacy evaluation of VC on exogenously senescent (light aging) cells, proliferation-promoting effect (ATP detection). In kind it is cell-based. To be noted: exogenous senescence (light aging), 10 ug/mL VC, 48 h.
Description: […]

Assay [2] concerns endogenously senescent human primary fibroblasts (P4, P7, P9, P12 passage cells). Briefly: Anti-aging efficacy evaluation of VC on endogenously senescent (naturally senescent) cells, proliferation-promoting effect (ATP detection). It counts as cell-based. To be noted: endogenous senescence, 10 ug/mL VC, 48 h.
Description: […]

In the case of `O=C1O[C@H]([C@@H](O)CO)C(O)=C1O` [VC], the proliferation-promoting effect result in assay [1] (early-stage senescent cells (UVA-P4)) was “relatively significant proliferation-promoting effect”; in assay [1] (late-stage senescent cells (UVA-P9)), “no proliferation-promoting effect”; in assay [1] (middle-stage senescent cells (UVA-P7)) it was “relatively poor proliferation-promoting effect”; in assay [2] (early-stage senescent cells (P7)), “relatively poor proliferation-promoting effect”; in assay [2] (growth-stage cells (P4)), “relatively significant proliferation-promoting effect”; in assay [2] (late-stage senescent cells (P12)), “basically no proliferation-promoting effect”. Further, the proliferation-promoting effect result in assay [2] (middle-stage senescent cells (P9)) is reported as “basically no proliferation-promoting effect”.
